Laboratory results reported in patent publication US6639123B1, “Melanocortin-3 receptor deficient cells, non-human trangenic animals and methods of selecting compounds which regulate body weight” (Merck & Co., Inc., priority 1999, dated 2003).

System: male MC-3R^−/− and WT mice
Assay: Peripheral MTII administration: 24-h food consumption
Conditions: single intraperitoneal injection, 10 mg/kg, n=9, P<0.05
Protocol: Peripheral MTII administration—For seven consecutive days, individually-housed 23-25-week-old male MC-3R^−/− (n=9) and WT (n=9) mice received an intraperitoneal (ip) injection of a sterile 0.9% NaCl vehicle solution approximately 30 min before the onset of the dark phase of the light cycle. At the same time on the eighth consecutive day of the study, mice received an ip injection of MTII at a dose of 10 mg/kg delivered in vehicle. Body and food (Teklad 7012) weights were measured and recorded daily approximately 15 min prior to injection.

Q: Which results are given for MTII?
A: reduction of food consumption over a 24-h period relative to a 2-day vehicle treatment baseline (MC-3R^−/− male mice): 16.9±7.0%; reduction of food consumption over a 24-h period relative to a 2-day vehicle treatment baseline (WT male mice): 11.1±4.3%
